# Legend:
# [1] = system: loss of memory induced by electric shock; experiment: Nootropa activity: protection from memory loss induced by electric shock, aquatic labyrinth (number of errors); assay type: in vivo, rat; settings: rats
# Experimental: Tests were carried out on rats using the technique estimating the loss of memory induced by electric shock, the loss of memory being determined as related to the number of errors made in seeking the outlet from an acquatic labyrinth (Giurgea C. J. Pharmacol (Paris) 3, 1, 17, *1972).
# [2] = system: learning in the acquatic labyrinth; experiment: Learning activity: learning in the acquatic labyrinth; assay type: in vivo
# [3] = system: learning in the conditioning cage; experiment: Learning activity: conditioning cage (electric shock avoidance); assay type: in vivo
# [4] = system: desperation behavior in mice; experiment: Anti-depressant activity: desperation behavior in mice (Porsalt); assay type: in vivo, mouse
# Experimental: This activity was evaluated by the method of examining the desperation behavior in mice (Porsalt, T. D., Arch. Int Pharmacodyn 229, 327 (1977).
# A state of despair was induced by placing the animal in a cylinder containing water, and from which escape was impossible, the animal then finding itself obliged to treadmill continually. After a period of vigorous activity, the mouse assumes a characteristic immobile posture, which behavior is capable of reduction by the use of various types of pharmaceutical anti-depressants.
# [5] = system: cataleptic condition in rats, induced by fluphenazine; experiment: Anti-cataleptic activity: Morpurgo test, antagonism of fluphenazine-induced catalepsy; assay type: in vivo, rat
# From the text: This activity was the subject of Morpurgo tests (Arch. Int. Pharmacodyn, 137, 84 (1962), based on antagonizing the cataleptic condition in rats, induced by fluphenazine.
# [6] = Toxicity, Irwin or "screening" multi-dimensional test; assay type: in vivo
# [7] = LD50 in the rat; settings: in vivo
# [8] = LD50 in the mouse; settings: in vivo
# [9] = statement covers acquatic labyrinth and conditioning cage tests
# [10] = ip, i.p. (intraperitoneal route)
smiles,measurement,setting,value
"O=C(COc1ccc(Cl)cc1)OCCNC12CC3CC(CC(C3)C1)C2 [Compound I, p-chlorophenoxyacetate of 1-aminoadamantine-2-ethanol]","Nootropa activity, in words",[1]; loss of memory by electric shock,notably active
same,Protection from memory loss due to electric shock (number of errors),"[1]; number of errors in acquatic labyrinth, p < 0.01",46.5%
same,Decrease with respect to the control in the errors made in the acquatic labrinth (5th day),"[2]; 5th day, vs control, p < 0.01",51.6%
same,"Learning facility in the acquatic labyrinth, in words",[2]; [9],increased learning facility
same,"Learning facility in the conditioning cage, in words",[3]; [9],increased learning facility
same,Increase with respect to the control in the conditioning cage (learning facility),"[3]; vs control, p < 0.001",14.4%
same,"Anti-depressant effects, in words",[4]; desperation behavior,moderate anti-depressant effects
same,Protection with respect to the control (anti-depressant activity),"[4]; vs control, p < 0.001",45.9%
same,"Reduction of the cataleptic activity of fluphenazine, in words",[5],slightly reduced the cataleptic activity of the fluphenazine
same,Toxicity: effects of non-toxic doses,[6]; non-toxic doses,no evidence as to effects of non-toxic doses
same,Toxicity: effects of toxic doses,[6]; toxic doses,death accompanied by trembling and clonic convulsions
same,LD50,[7]; [10],360 mg/kg
same,LD50,[7]; p.o. (oral route),> 4000 mg/kg
same,LD50,[8]; [10],415 mg/kg
same,LD50,[8]; p.o. (oral route),> 4000 mg/kg

# — patent US4476319A, “P-Chlorophenoxyacetic acid derivative, its method of preparation, the pharmaceutical compositions containing it and its use in medicine” (Sociedad Espanola de Especialidades Farmaco-Terapeuticas …, priority 1981, dated 1984)
